Experiment: Glass transition temperature (DSC)
Type: physicochemical
Details: amorphous drug, dispersed in patch or undispersed
Description: Example 1: To a glass jar Plastone 29/32 (12 g) and ethanol (7.56 g) were added. The admixture was mixed with a spatula, heated and sonicated in a water bath at 45° C. until a viscous solution was formed. To the solution was added scopolamine base (4.00 g). The admixture was mixed with a spatula, heated, sonicated and swirled until a clear viscous solution was formed. After the solution was cooled for a while, Dow Corning silicone adhesive 7-4302 (40.82 g, 60% solid) and ethyl acetate (8.34 g) were added. The material was quickly mixed at high shear to provide a cream-like uniform suspension. After air bubbles were removed by rolling overnight, the suspension was coated to a release liner, dried at room temperature for 5 minutes, in an oven set at 40° C. for 5 minutes and in an oven set at 85° C. for 5 minutes to form a thin layer of adhesive on release liner. A backing film Mediflex® 1502 was laminated to the adhesive side. Individual patches were die-cut and pouched.

O=C1CC[C@@]2(O)[C@H]3Cc4ccc(O)c5c4[C@@]2(CCN3CC2CC2)[C@H]1O5 [naltrexone]
glass transition temperature (Tg): 79.5 °C

CN1[C@@H]2C[C@@H](OC(=O)[C@H](CO)c3ccccc3)C[C@H]1[C@@H]1O[C@@H]12 [undispersed amorphous scopolamine, scopolamine]
glass transition temperature (Tg): about 10 °C

From patent publication US20110182949A1, “STABILIZED TRANSDERMAL DRUG DELIVERY SYSTEM” (priority 2008, published 2011)
